According to patent publication US5922691A, “Crystalline maltotetraosyl glucoside, and its production and use” (Kabushiki Kaisha Hayashibara Seibutsu Kagaku Kenkyujo, priority 1994, dated 1999):
Converted amounts (≈) assume the structure as drawn.

Experiments:
[1] = Reducing power by the Somogyi-Nelson method, represented by DE; type: physicochemical; details: high-purity lyophilized saccharide preparations
Procedure: These high-purity saccharide preparations were tested for reducing power with the Somogyi-Nelson method and their reducing powers were represented by DE (dextrose equivalent).

[2] = Hygroscopicity when allowed to stand in a room; type: physicochemical; details: for Hygroscopicity: allowed to stand in a room
Procedure: Fifty parts by weight of 98% maltopentaose, a product commercialized by Hayashibara Biochemical Laboratories, Inc., Okayama, Japan, was dissolved in 200 parts by weight of water while heating and the resultant solution was heated to 40° C. and adjusted to pH 7.0, admixed with a non-reducing saccharide-forming enzyme prepared by the method in Experiment A-2 in an amount of 5 units/g maltopentaose, reacted for 24 hours and followed by heating at 100° C. for 20 minutes to inactivate the enzyme. The resultant solution contained about 90% maltotetraosyl glucoside, and the remains are maltopentaose. The solution was adjusted to 0.1N by adding sodium hydroxide, and heated at 100° C. for 2 hours to decompose reducing saccharides. The solution was decolored with activated carbon and desalted with ion-exchange resins (H^+ and OH^- form) to obtain 98% maltotetraosyl glucoside fraction. The fractions were pooled and the solution was concentrated to give a concentration of 60%, placed in a crystallizer and admixed with a crystalline maltotetraosyl glucoside in an amount of 2% as a seed crystal, and the resultant mixture is cooled gradually while stirring for crystallization to form a massecuit. The massecuit thus obtained was separated from molasses to obtain 99.9% hydrous crystalline maltotetraosyl glucoside in the yield against starting material of about 50%.
The anhydrous crystalline maltotetraosyl glucoside can be favorably used as hygroscopic agent, dehydrating agent and chemical raw material, and further utilizable in a variety of compositions including foods, beverages, cosmetics, pharmaceuticals and shaped bodies, similar to hydrous crystalline maltotetraosyl glucoside in Example A-1.

Solubility in water = type: physicochemical; details: in 100 ml of 25° C. water; read-out: Solubility (as anhydride)
Procedure: (8) Solubility (as anhydride)
Up to about 1 g each hydrous or anhydrous crystal was soluble in 100 ml of 25° C. water.

mice = assay: Acute toxicity in mice upon oral administration; type: in vivo; details: oral, maximum administrable doses
Procedure: (§1) Hydrous and anhydrous crystalline maltotetraosyl glucosides prepared by the method in Experiment B-1 were tested for acute toxicity in mice upon oral administration.

[3] = Acute toxicity in mice upon oral administration; type: in vivo; details: mouse, in vivo, oral administration
Procedure: as §1

Row | DE (dextrose equivalent), reducing power [1] | SMILES | Hygroscopicity [2] | further results
1 | 0.27 | OC[C@H]1O[C@H](O[C@H]2O[C@H](CO)[C@@H](O[C@H]3O[C@H](CO)[C@@H](O[C@H]4O[C@H](CO)[C@@H](O[C@H]5O[C@H](CO)[C@@H](O[C@H]6O[C@H](CO)[C@@H](O)[C@H](O)[C@H]6O)[C@H](O)[C@H]5O)[C@H](O)[C@H]4O)[C@H](O)[C@H]3O)[C@H](O)[C@H]2O)[C@H](O)[C@@H](O)[C@@H]1O [PIV, α-maltotetraosyl trehalose (or α-maltopentaosyl glucoside)] |  | 
2 |  | OC[C@H]1O[C@H](O[C@H]2O[C@H](CO)[C@@H](O[C@H]3O[C@H](CO)[C@@H](O[C@H]4O[C@H](CO)[C@@H](O[C@H]5O[C@H](CO)[C@@H](O)[C@H](O)[C@H]5O)[C@H](O)[C@H]4O)[C@H](O)[C@H]3O)[C@H](O)[C@H]2O)[C@H](O)[C@@H](O)[C@@H]1O [Example A-5, maltotetraosyl glucoside] | substantially no hygroscopicity | 
3 |  | OC[C@H]1O[C@H](O[C@H]2O[C@H](CO)[C@@H](O[C@H]3O[C@H](CO)[C@@H](O[C@H]4O[C@H](CO)[C@@H](O[C@H]5O[C@H](CO)[C@@H](O)[C@H](O)[C@H]5O)[C@H](O)[C@H]4O)[C@H](O)[C@H]3O)[C@H](O)[C@H]2O)[C@H](O)[C@@H](O)[C@@H]1O [Example A-3, maltotetraosyl glucoside] | substantially no hygroscopicity | 
4 | 0.83 | OC[C@H]1O[C@H](O[C@H]2O[C@H](CO)[C@@H](O[C@H]3O[C@H](CO)[C@@H](O)[C@H](O)[C@H]3O)[C@H](O)[C@H]2O)[C@H](O)[C@@H](O)[C@@H]1O [PI, α-glucosyl trehalose (or α-maltosyl glucoside)] |  | 
5 |  | OC[C@H]1O[C@H](O[C@H]2O[C@H](CO)[C@@H](O[C@H]3O[C@H](CO)[C@@H](O[C@H]4O[C@H](CO)[C@@H](O[C@H]5O[C@H](CO)[C@@H](O)[C@H](O)[C@H]5O)[C@H](O)[C@H]4O)[C@H](O)[C@H]3O)[C@H](O)[C@H]2O)[C@H](O)[C@@H](O)[C@@H]1O [Example A-2, maltotetraosyl glucoside] | substantially no hygroscopicity | 
6 | 0.23 | OC[C@H]1O[C@H](O[C@H]2O[C@H](CO)[C@@H](O[C@H]3O[C@H](CO)[C@@H](O[C@H]4O[C@H](CO)[C@@H](O[C@H]5O[C@H](CO)[C@@H](O[C@H]6O[C@H](CO)[C@@H](O[C@H]7O[C@H](CO)[C@@H](O)[C@H](O)[C@H]7O)[C@H](O)[C@H]6O)[C@H](O)[C@H]5O)[C@H](O)[C@H]4O)[C@H](O)[C@H]3O)[C@H](O)[C@H]2O)[C@H](O)[C@@H](O)[C@@H]1O [PV, α-maltopentaosyl trehalose (or α-maltohexaosyl glucoside)] |  | 
7 | 0.35 | OC[C@H]1O[C@H](O[C@H]2O[C@H](CO)[C@@H](O[C@H]3O[C@H](CO)[C@@H](O[C@H]4O[C@H](CO)[C@@H](O)[C@H](O)[C@H]4O)[C@H](O)[C@H]3O)[C@H](O)[C@H]2O)[C@H](O)[C@@H](O)[C@@H]1O [PII, α-maltosyl trehalose (or α-maltotriosyl glucoside)] |  | 
8 |  | OC[C@H]1O[C@H](O[C@H]2O[C@H](CO)[C@@H](O[C@H]3O[C@H](CO)[C@@H](O[C@H]4O[C@H](CO)[C@@H](O[C@H]5O[C@H](CO)[C@@H](O)[C@H](O)[C@H]5O)[C@H](O)[C@H]4O)[C@H](O)[C@H]3O)[C@H](O)[C@H]2O)[C@H](O)[C@@H](O)[C@@H]1O [Example A-4, maltotetraosyl glucoside] | exhibited hygroscopicity | Water content after standing in a room ([2]; after conversion into hydrous crystal): about 4%
9 |  | OC[C@H]1O[C@H](O[C@H]2O[C@H](CO)[C@@H](O[C@H]3O[C@H](CO)[C@@H](O[C@H]4O[C@H](CO)[C@@H](O[C@H]5O[C@H](CO)[C@@H](O)[C@H](O)[C@H]5O)[C@H](O)[C@H]4O)[C@H](O)[C@H]3O)[C@H](O)[C@H]2O)[C@H](O)[C@@H](O)[C@@H]1O [Example A-1, maltotetraosyl glucoside] | no hygroscopicity | 
10 |  | OC[C@H]1O[C@H](O[C@H]2O[C@H](CO)[C@@H](O[C@H]3O[C@H](CO)[C@@H](O[C@H]4O[C@H](CO)[C@@H](O[C@H]5O[C@H](CO)[C@@H](O)[C@H](O)[C@H]5O)[C@H](O)[C@H]4O)[C@H](O)[C@H]3O)[C@H](O)[C@H]2O)[C@H](O)[C@@H](O)[C@@H]1O [hydrous crystal, O-α-D-glucopyranosyl-(1→4)-O-α-D-glucopyranosyl-(1→4)-O-α-D-glucopyranosyl-(1→4)-α-D-glucopyranosyl α-D-glucopyranoside] |  | solubility (Solubility in water): ~10000 µg/mL (≈ 12.1 mM); Mortality (mice): no mouse was died; LD50 [3]: ≥ 50000 mg/kg

Row | SMILES | DE (dextrose equivalent), reducing power [1] | Hygroscopicity [2] | further results
11 | OC[C@H]1O[C@H](O[C@H]2O[C@H](CO)[C@@H](O[C@H]3O[C@H](CO)[C@@H](O[C@H]4O[C@H](CO)[C@@H](O[C@H]5O[C@H](CO)[C@@H](O)[C@H](O)[C@H]5O)[C@H](O)[C@H]4O)[C@H](O)[C@H]3O)[C@H](O)[C@H]2O)[C@H](O)[C@@H](O)[C@@H]1O [PIII, α-maltotriosyl trehalose (or α-maltotetraosyl glucoside)] | 0.10 |  | 
